Reference: ChEMBL document CHEMBL3797052 (Eur J Med Chem, 2016)

system: not listed separately; assay: Antiproliferative activity against human LOXIMVI cells assessed as cell growth at 10^-4 M after 48 hrs by sulforhodamine B assay; format: functional; conditions: LOX IMVI, read-out: Activity

| Compound | growth at 100 µM [%] |
| --- | --- |
| CNC(=O)c1cc(Oc2ccc3nc(NC(=O)Nc4ccc(Cl)c(Cl)c4)sc3c2)ccn1 | -62 |

system: SK-MEL-2; assay: Antiproliferative activity against human SK-MEL-2 cells assessed as growth inhibition after 48 hrs by sulforhodamine B assay; format: functional; conditions: SK-MEL-2, 48 h

| Compound | GI50 [µM] | TGI [µM] |
| --- | --- | --- |
| CNC(=O)c1cc(Oc2ccc3nc(NC(=O)Nc4ccc(Cl)c(Cl)c4)sc3c2)ccn1 | 2.56 | 5.97 |

same assay, conditions: SK-MEL-2, 48 h, read-out: LC50 (the source's name)

| Compound | CC50 [µM] |
| --- | --- |
| CNC(=O)c1cc(Oc2ccc3nc(NC(=O)Nc4ccc(Cl)c(Cl)c4)sc3c2)ccn1 | > 100 |

system: not listed separately; assay: Antiproliferative activity against human Hs 578T cells assessed as cell growth at 10^-4 M after 48 hrs by sulforhodamine B assay; format: functional; conditions: read-out: Activity

| Compound | growth at 100 µM [%] |
| --- | --- |
| CNC(=O)c1cc(Oc2ccc3nc(NC(=O)Nc4ccc(Cl)c(Cl)c4)sc3c2)ccn1 | -22 |

system: not listed separately; assay: Antiproliferative activity against human HOP92 cells assessed as cell growth at 10^-8 M after 48 hrs by sulforhodamine B assay; format: functional; conditions: HOP-92, 48 h, read-out: Activity

| Compound | growth at 0.01 µM [%] |
| --- | --- |
| CNC(=O)c1cc(Oc2ccc3nc(NC(=O)Nc4ccc(Cl)c(Cl)c4)sc3c2)ccn1 | 100 |

system: Serine/threonine-protein kinase B-raf (Homo sapiens), P15056 [V600E]; assay: Inhibition of BRAF V600E mutant (unknown origin) at 10 uM measured after 40 mins by scintillation counting; conditions: not given
Sequence (P15056 whole entry V600E): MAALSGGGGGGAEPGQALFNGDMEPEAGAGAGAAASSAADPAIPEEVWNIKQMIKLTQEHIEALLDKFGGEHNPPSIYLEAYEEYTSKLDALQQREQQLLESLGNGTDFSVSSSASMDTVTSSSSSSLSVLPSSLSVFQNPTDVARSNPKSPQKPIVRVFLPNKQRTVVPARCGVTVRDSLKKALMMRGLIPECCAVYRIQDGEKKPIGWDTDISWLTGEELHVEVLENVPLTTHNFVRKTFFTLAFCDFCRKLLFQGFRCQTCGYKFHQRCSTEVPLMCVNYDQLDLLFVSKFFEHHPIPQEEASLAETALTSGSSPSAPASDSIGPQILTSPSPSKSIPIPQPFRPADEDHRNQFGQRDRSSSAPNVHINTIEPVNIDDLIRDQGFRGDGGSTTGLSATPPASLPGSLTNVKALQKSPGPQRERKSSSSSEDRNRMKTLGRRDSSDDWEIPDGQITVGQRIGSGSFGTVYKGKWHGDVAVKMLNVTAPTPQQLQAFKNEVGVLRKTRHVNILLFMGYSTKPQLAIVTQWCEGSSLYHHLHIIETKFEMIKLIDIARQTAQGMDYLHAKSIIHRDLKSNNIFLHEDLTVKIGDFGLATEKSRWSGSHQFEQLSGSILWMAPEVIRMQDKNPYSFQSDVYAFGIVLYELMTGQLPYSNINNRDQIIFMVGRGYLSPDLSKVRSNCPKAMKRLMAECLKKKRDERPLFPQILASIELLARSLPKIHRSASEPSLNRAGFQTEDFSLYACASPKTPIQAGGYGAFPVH

| Compound | inhibition [%] |
| --- | --- |
| CNC(=O)c1cc(Oc2ccc3nc(NC(=O)Nc4ccc(Cl)c(Cl)c4)sc3c2)ccn1 | 67.6 |

system: not listed separately; assay: Antiproliferative activity against human OVCAR4 cells assessed as cell growth at 10^-8 M after 48 hrs by sulforhodamine B assay; format: functional; conditions: OVCAR-4, 48 h, read-out: Activity

| Compound | growth at 0.01 µM [%] |
| --- | --- |
| CNC(=O)c1cc(Oc2ccc3nc(NC(=O)Nc4ccc(Cl)c(Cl)c4)sc3c2)ccn1 | 93 |

system: not listed separately; assay: Antiproliferative activity against human HOP92 cells assessed as cell growth at 10^-7 M after 48 hrs by sulforhodamine B assay; format: functional; conditions: HOP-92, 48 h, read-out: Activity

| Compound | growth at 0.1 µM [%] |
| --- | --- |
| CNC(=O)c1cc(Oc2ccc3nc(NC(=O)Nc4ccc(Cl)c(Cl)c4)sc3c2)ccn1 | 110 |

system: not listed separately; assay: Antiproliferative activity against human OVCAR8 cells assessed as cell growth at 10^-6 M after 48 hrs by sulforhodamine B assay; format: functional; conditions: OVCAR-8, 48 h, read-out: Activity

| Compound | growth at 1 µM [%] |
| --- | --- |
| CNC(=O)c1cc(Oc2ccc3nc(NC(=O)Nc4ccc(Cl)c(Cl)c4)sc3c2)ccn1 | 103 |

system: Malme-3M; assay: Antiproliferative activity against human MALME-3M cells assessed as growth inhibition after 48 hrs by sulforhodamine B assay; format: functional; conditions: not given

| Compound | GI50 [µM] | TGI [µM] |
| --- | --- | --- |
| CNC(=O)c1cc(Oc2ccc3nc(NC(=O)Nc4ccc(Cl)c(Cl)c4)sc3c2)ccn1 | 1.51 | 3.3 |

same assay, conditions: read-out: LC50 (the source's name)

| Compound | CC50 [µM] |
| --- | --- |
| CNC(=O)c1cc(Oc2ccc3nc(NC(=O)Nc4ccc(Cl)c(Cl)c4)sc3c2)ccn1 | 7.21 |

system: SK-MEL-2; assay: Antiproliferative activity against human SK-MEL-2 cells assessed as cell growth at 10^-4 M after 48 hrs by sulforhodamine B assay; format: functional; conditions: SK-MEL-2, 48 h, read-out: Activity

| Compound | growth at 100 µM [%] |
| --- | --- |
| CNC(=O)c1cc(Oc2ccc3nc(NC(=O)Nc4ccc(Cl)c(Cl)c4)sc3c2)ccn1 | -48 |

system: not listed separately; assay: Antiproliferative activity against human RXF393 cells assessed as cell growth at 10^-6 M after 48 hrs by sulforhodamine B assay; format: functional; conditions: RXF 393, 48 h, read-out: Activity

| Compound | growth at 1 µM [%] |
| --- | --- |
| CNC(=O)c1cc(Oc2ccc3nc(NC(=O)Nc4ccc(Cl)c(Cl)c4)sc3c2)ccn1 | 94 |

system: not listed separately; assay: Antiproliferative activity against human UACC257 cells assessed as growth inhibition after 48 hrs by sulforhodamine B assay; format: functional; conditions: UACC-257, 48 h

| Compound | GI50 [µM] |
| --- | --- |
| CNC(=O)c1cc(Oc2ccc3nc(NC(=O)Nc4ccc(Cl)c(Cl)c4)sc3c2)ccn1 | 2.25 |

same assay, conditions: UACC-257, 48 h, read-out: LC50 (the source's name)

| Compound | CC50 [µM] |
| --- | --- |
| CNC(=O)c1cc(Oc2ccc3nc(NC(=O)Nc4ccc(Cl)c(Cl)c4)sc3c2)ccn1 | > 100 |

system: EKVX; assay: Antiproliferative activity against human EKVX cells assessed as cell growth at 10^-4 M after 48 hrs by sulforhodamine B assay; format: functional; conditions: read-out: Activity

| Compound | growth at 100 µM [%] |
| --- | --- |
| CNC(=O)c1cc(Oc2ccc3nc(NC(=O)Nc4ccc(Cl)c(Cl)c4)sc3c2)ccn1 | 23 |

system: not listed separately; assay: Antiproliferative activity against human SF295 cells assessed as cell growth at 10^-6 M after 48 hrs by sulforhodamine B assay; format: functional; conditions: SF-295, 48 h, read-out: Activity

| Compound | growth at 1 µM [%] |
| --- | --- |
| CNC(=O)c1cc(Oc2ccc3nc(NC(=O)Nc4ccc(Cl)c(Cl)c4)sc3c2)ccn1 | 79 |

system: not listed separately; assay: Antiproliferative activity against human PC3 cells assessed as cell growth at 10^-7 M after 48 hrs by sulforhodamine B assay; format: functional; conditions: PC-3, 48 h, read-out: Activity

| Compound | growth at 0.1 µM [%] |
| --- | --- |
| CNC(=O)c1cc(Oc2ccc3nc(NC(=O)Nc4ccc(Cl)c(Cl)c4)sc3c2)ccn1 | 100 |

system: not listed separately; assay: Antiproliferative activity against human HCC2998 cells assessed as cell growth at 10^-7 M after 48 hrs by sulforhodamine B assay; format: functional; conditions: HCC 2998, 48 h, read-out: Activity

| Compound | growth at 0.1 µM [%] |
| --- | --- |
| CNC(=O)c1cc(Oc2ccc3nc(NC(=O)Nc4ccc(Cl)c(Cl)c4)sc3c2)ccn1 | 101 |

system: not listed separately; assay: Antiproliferative activity against human UO31 cells assessed as cell growth at 10^-7 M after 48 hrs by sulforhodamine B assay; format: functional; conditions: UO-31, 48 h, read-out: Activity

| Compound | growth at 0.1 µM [%] |
| --- | --- |
| CNC(=O)c1cc(Oc2ccc3nc(NC(=O)Nc4ccc(Cl)c(Cl)c4)sc3c2)ccn1 | 100 |

system: SR; assay: Antiproliferative activity against human SR cells assessed as cell growth at 10^-8 M after 48 hrs by sulforhodamine B assay; format: functional; conditions: read-out: Activity

| Compound | growth at 0.01 µM [%] |
| --- | --- |
| CNC(=O)c1cc(Oc2ccc3nc(NC(=O)Nc4ccc(Cl)c(Cl)c4)sc3c2)ccn1 | 108 |

system: not listed separately; assay: Antiproliferative activity against human SF268 cells assessed as cell growth at 10^-8 M after 48 hrs by sulforhodamine B assay; format: functional; conditions: SF-268, 48 h, read-out: Activity

| Compound | growth at 0.01 µM [%] |
| --- | --- |
| CNC(=O)c1cc(Oc2ccc3nc(NC(=O)Nc4ccc(Cl)c(Cl)c4)sc3c2)ccn1 | 96 |

system: A549; assay: Antiproliferative activity against human A549/ATCC cells assessed as cell growth at […] after 48 hrs by sulforhodamine B assay; format: functional; conditions: A549, 48 h, read-out: Activity

| Compound | growth at 0.1 µM [%] |
| --- | --- |
| CNC(=O)c1cc(Oc2ccc3nc(NC(=O)Nc4ccc(Cl)c(Cl)c4)sc3c2)ccn1 | 96 |

system: not listed separately; assay: Antiproliferative activity against human SW620 cells assessed as cell growth at 10^-4 M after 48 hrs by sulforhodamine B assay; format: functional; conditions: SW-620, 48 h, read-out: Activity

| Compound | growth at 100 µM [%] |
| --- | --- |
| CNC(=O)c1cc(Oc2ccc3nc(NC(=O)Nc4ccc(Cl)c(Cl)c4)sc3c2)ccn1 | 48 |

system: NCI-H226; assay: Antiproliferative activity against human NCI-H226 cells assessed as cell growth at 10^-8 M after 48 hrs by sulforhodamine B assay; format: functional; conditions: NCI-H226, 48 h, read-out: Activity

| Compound | growth at 0.01 µM [%] |
| --- | --- |
| CNC(=O)c1cc(Oc2ccc3nc(NC(=O)Nc4ccc(Cl)c(Cl)c4)sc3c2)ccn1 | 104 |

system: not listed separately; assay: Antiproliferative activity against human SNB75 cells assessed as cell growth at 10^-6 M after 48 hrs by sulforhodamine B assay; format: functional; conditions: SNB-75, 48 h, read-out: Activity

| Compound | growth at 1 µM [%] |
| --- | --- |
| CNC(=O)c1cc(Oc2ccc3nc(NC(=O)Nc4ccc(Cl)c(Cl)c4)sc3c2)ccn1 | 87 |

system: not listed separately; assay: Antiproliferative activity against human Caki1 cells assessed as cell growth at 10^-7 M after 48 hrs by sulforhodamine B assay; format: functional; conditions: CAKI-1, 48 h, read-out: Activity

| Compound | growth at 0.1 µM [%] |
| --- | --- |
| CNC(=O)c1cc(Oc2ccc3nc(NC(=O)Nc4ccc(Cl)c(Cl)c4)sc3c2)ccn1 | 99 |

system: SN12C; assay: Antiproliferative activity against human SN12C cells assessed as cell growth at 10^-4 M after 48 hrs by sulforhodamine B assay; format: functional; conditions: read-out: Activity

| Compound | growth at 100 µM [%] |
| --- | --- |
| CNC(=O)c1cc(Oc2ccc3nc(NC(=O)Nc4ccc(Cl)c(Cl)c4)sc3c2)ccn1 | 9 |

system: SK-MEL-28; assay: Antiproliferative activity against human SK-MEL-28 cells assessed as cell growth at 10^-6 M after 48 hrs by sulforhodamine B assay; format: functional; conditions: SK-MEL-28, 48 h, read-out: Activity

| Compound | growth at 1 µM [%] |
| --- | --- |
| CNC(=O)c1cc(Oc2ccc3nc(NC(=O)Nc4ccc(Cl)c(Cl)c4)sc3c2)ccn1 | 88 |

system: A549; assay: Antiproliferative activity against human A549/ATCC cells assessed as cell growth at 10^-6 M after 48 hrs by sulforhodamine B assay; format: functional; conditions: A549, 48 h, read-out: Activity

| Compound | growth at 1 µM [%] |
| --- | --- |
| CNC(=O)c1cc(Oc2ccc3nc(NC(=O)Nc4ccc(Cl)c(Cl)c4)sc3c2)ccn1 | 93 |

system: not listed separately; assay: Antiproliferative activity against human OVCAR4 cells assessed as growth inhibition after 48 hrs by sulforhodamine B assay; format: functional; conditions: OVCAR-4, 48 h

| Compound | GI50 [µM] | TGI [µM] |
| --- | --- | --- |
| CNC(=O)c1cc(Oc2ccc3nc(NC(=O)Nc4ccc(Cl)c(Cl)c4)sc3c2)ccn1 | 2.06 | 4.03 |

same assay, conditions: OVCAR-4, 48 h, read-out: LC50 (the source's name)

| Compound | CC50 [µM] |
| --- | --- |
| CNC(=O)c1cc(Oc2ccc3nc(NC(=O)Nc4ccc(Cl)c(Cl)c4)sc3c2)ccn1 | 7.89 |

target: T1, CYP1A2 (Homo sapiens, UniProt P05177); assay: Inhibition of recombinant human CYP1A2 assessed as remaining enzyme activity using CYP1A2 blue as substrate at 10 uM after 5 mins in presence of NADP by fluorescence plate reader analysis; format: ADME; conditions: recombinant human CYP1A2, probe CYP1A2 blue, read-out: Activity
T1 sequence (P05177 whole entry): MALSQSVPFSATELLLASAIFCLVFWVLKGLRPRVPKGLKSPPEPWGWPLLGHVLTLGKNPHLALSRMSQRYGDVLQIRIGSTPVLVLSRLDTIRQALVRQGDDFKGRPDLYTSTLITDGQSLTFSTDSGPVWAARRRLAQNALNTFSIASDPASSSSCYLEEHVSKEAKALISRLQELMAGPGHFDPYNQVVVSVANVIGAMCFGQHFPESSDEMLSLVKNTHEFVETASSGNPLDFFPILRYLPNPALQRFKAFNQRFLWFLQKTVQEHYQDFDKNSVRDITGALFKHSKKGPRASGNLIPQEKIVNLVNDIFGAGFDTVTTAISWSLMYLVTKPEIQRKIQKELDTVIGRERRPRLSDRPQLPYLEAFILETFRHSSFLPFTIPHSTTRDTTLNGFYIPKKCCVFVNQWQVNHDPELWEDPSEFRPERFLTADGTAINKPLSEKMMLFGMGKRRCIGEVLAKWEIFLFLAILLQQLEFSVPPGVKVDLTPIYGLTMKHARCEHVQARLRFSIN

| Compound | activity at 5 min, 10 µM [%] |
| --- | --- |
| CNC(=O)c1cc(Oc2ccc3nc(NC(=O)Nc4ccc(Cl)c(Cl)c4)sc3c2)ccn1 | 104 |
